Results reported in patent publication US20240000724A1, “Compositions and Methods for Treatment or Prevention of Oral Mucositis” (PATHWAYS BIOSCIENCE, LLC, priority 2015, published 2024).
“Also recorded” adds a separate entry of the source.

Columns and labels:
[1] = test system: Nrf2 signaling pathway (HepG2 cells); assay: Short exposure time course of Nrf2 activation in HepG2 Nrf2-driven promoter luciferase reporter cells; format: cell-based, human; conditions: 5 minutes exposure, washed off, read 24 hours later; compared with 1 or 2 hours exposure
Procedure: As an example of the short time course of PB201 exposure needed to activate the Nrf2 signaling pathway, HepG2 cells stably transfected with a Nrf2-driven promoter, luciferase reporter construct were treated with PB201 for 5 minutes, 1 hour, or 2 hours, then the PB201 was removed and washed off the cells, then 24 hours later the luciferase levels were measured by chemiluminescence to assay for Nrf2 activation.

[2] = test system: Nrf2 (HepG2-ARE promoter/reporter cells); assay: HepG2-ARE promoter/reporter cells, Nrf2 activation (chemiluminescent signal, RLU); format: cell-based, human; conditions: for Nrf2 activation level: 4.2 ug/mL, unstimulated baseline 7182 RLU; for Nrf2 activation (chemiluminescent signal, RLU): HepG2-ARE cells
Procedure: (§1) In this example, approaches were used to increase the aqueous distribution of the otherwise relatively insoluble 1,3-diphenyl-1,3-propanedione (DBM) by adding 2-hydroxypropyl beta-cyclodextrin (HPBCD) at a molar ratio (DBM:HPBCD) of 1:3. […] To verify its presence in the aqueous solutions, the samples were tested for activity of PB201 using HepG2-ARE promoter/reporter cells, which are responsive to PB201 and other Nrf2-activators by promoting the expression of luciferase.
Furthermore, the Nrf2 activation by the 1,3-diphenyl-1,3-propanedione, with or without solubility enhancing agents such as HPBCD, is temporary, not permanent, and can be repeated; for example the Nrf2 activation by 4.2 ug/mL 1,3-diphenyl-1,3-propanedione decreases from its level at 17 hours (72,949 RLU) to 24 hours (47,121 RLU) after stimulation, and is nearly back to its baseline, unstimulated levels (7182 RLU) by 48 hours (11,659 RLU). Similarly, other types of agents can be utilized to increase aqueous levels of 1,3-diphenyl-1,3-propanedione including, but not limited to, surfactants, liposomes, amphiphiles, emulsifiers, and complexing agents to make solutions or suspensions.

[3] = Aqueous solubility / visual dissolution in PBS with and without HPBCD; format: physicochemical; conditions: for Aqueous solubility alone: water or aqueous solutions, no solubility enhancer
Procedure: as §1

[4] = test system: Interleukin-8 (IL-8) release, primary human lung epithelial cells; assay: IL-8 release from primary human lung epithelial cells stimulated with cigarette smoke extract; format: cell-based; conditions: primary human lung epithelial cells exposed to CSE for 7 days, vs untreated CSE-stimulated cells
Source text: As an example of the cell protective mechanisms induced by PB201 treatment, release of the proinflammatory cytokine Interleukin-8 (IL-8) was attenuated in primary human lung epithelial cells treated with PB201 compared to untreated cells when both were stimulated with cigarette smoke extract (FIG. 9).

O=C(CC(=O)c1ccccc1)c1ccccc1 [PB201, 1,3-diphenyl-1,3-propanedione]
Nrf2 response (luciferase chemiluminescence) [1]: strong Nrf2 response similar to 1 or 2 hours of exposure | Nrf2 activation level ([2]; 17 hours after stimulation): 72,949 RLU | Nrf2 activation level ([2]; 48 hours after stimulation): 11,659 RLU | Nrf2 activation (chemiluminescent signal, RLU) ([2]; PB201 in HPBCD/PBS): activated | Nrf2 activation (chemiluminescent signal, RLU) ([2]; PB201 in PBS alone): not by PB201 in PBS alone | Visual dissolution ([3]; 5 mg in 1 mL PBS with 93 mg HPBCD (3:1 mole ratio)): visually dissolved | Change of solubility in aqueous solution by 2-hydroxypropyl beta-cyclodextrin ([3]; HPBCD added, DBM:HPBCD 1:3): greatly increased | Aqueous solubility alone [3]: nearly insoluble | Aqueous solubility alone ([3]; listed as 1,3-diphenyl-1,3-propanedione): low aqueous solubility | IL-8 release [4]: significantly decreased; also recorded: attenuated
